Experimental data taken from ChEMBL document CHEMBL1201862, “PubChem BioAssay data set” (2004).
The source made the active and inactive calls.

Tests used:
[1] = HeLa 2N DNA content increase, dose response, cell-based, IC50 (AID 1117349); type: functional
[2] = Concentration-dependent survival of SW480 colon cancer line, luminescence detection with CellTiter-Glo, half-maximal inhibitory concentration (AID 1117338); type: functional
[3] = RKO cell viability reduction, dose response, CellTiter-Glo luminescence (AID 1117322); type: functional
[4] = cytotoxicity toward HCT116 cells – cell-based, CellTiter-Glo luminescence, IC50, dose response (AID 1117332); type: functional; conditions: HCT-116
[5] = SNU-C1 cell viability reduction, dose response, CellTiter-Glo luminescence (AID 1117323); type: functional, cell-based
[6] = cytotoxicity toward Colo320 cells – cell-based, CellTiter-Glo luminescence, IC50, dose response (AID 1117334); type: functional; conditions: COLO 320
[7] = HeLa 4N DNA content increase, dose response, cell-based, IC50 (AID 1117351); type: functional
[8] = cytotoxicity toward HT-29 cells – cell-based, CellTiter-Glo luminescence, IC50, dose response (AID 1117330); type: functional
[9] = CellTiter-Glo luminescent dose response of DLD-1 viability loss (AID 1117352); type: functional
[10] = HCT116 cell viability decrease, GSK3B pretreatment – CellTiter-Glo, IC50, dose response (AID 1117339); type: functional; conditions: HCT-116
[11] = half-maximal inhibitory concentration for glucagon-like peptide-1 release, STC-1 cell line, dose-response (AID 1117345); type: functional, cell-based
[12] = Glucagon-like peptide 1 release potency, NCI-H716 cell line, dose-response, half-maximal inhibitory concentration (AID 1117344); type: functional, cell-based
[13] = target: Tyrosyl-DNA phosphodiesterase 2 (Homo sapiens, UniProt O95551); assay: human TDP2 enzyme inhibitors, dose response, biochemical, epi absorbance, IC50 (AID 743297)
Albumin = Albumin (Bos taurus, UniProt P02769); assay: Counterscreen for inhibitors of T-cell receptor (TCR)-CD3 interaction: Fluorescence-based biochemical high throughput dose response assay to identify inhibitors of T-cell receptor (TCR)-CD3 interaction using a TAMRA-labeled BSA probe.; type: functional
[14] = inhibitors of Vif binding to APOBEC3G peptide, primary screen, biochemical, TR-FRET, GST-Vif 1-94, biotin-A3G peptide, dose response retest (AID 1117319); type: functional;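 also: TR-FRET signal of purified GST-Vif binding a biotinylated A3G peptide; inhibitors lower the FRET signal by blocking Vif and A3G binding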
[15] = target: T1, Oxysterols receptor LXR-beta (Homo sapiens, UniProt P55055); type: functional, cell-based;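 also: Cell-based luminescence dose-response assay of agonist activity at LXR, run as a confirmatory counterscreen to a daf-12 agonist screen; HEK293 cells with Gal4-LXR fusion and GAL4-driven luciferase reporter; agonist potency from rising luciferase signal of a Gal4-LXR reporter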
T1 sequence (P55055 whole entry): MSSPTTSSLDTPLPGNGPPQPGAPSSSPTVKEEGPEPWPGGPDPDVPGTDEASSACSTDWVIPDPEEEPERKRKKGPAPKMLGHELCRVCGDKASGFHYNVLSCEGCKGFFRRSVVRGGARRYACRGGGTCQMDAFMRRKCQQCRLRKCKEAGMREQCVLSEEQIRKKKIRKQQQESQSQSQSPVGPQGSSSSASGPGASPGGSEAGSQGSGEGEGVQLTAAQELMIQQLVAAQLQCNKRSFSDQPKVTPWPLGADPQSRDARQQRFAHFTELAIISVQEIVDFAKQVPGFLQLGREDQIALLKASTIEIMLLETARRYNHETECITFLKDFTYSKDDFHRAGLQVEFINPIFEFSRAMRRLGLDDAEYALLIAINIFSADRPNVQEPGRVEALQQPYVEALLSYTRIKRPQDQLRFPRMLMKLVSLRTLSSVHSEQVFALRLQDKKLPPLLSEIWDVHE

cells [16] = assay: cells
[17] = target: T2, RNA-binding protein pos-1 (Caenorhabditis elegans, UniProt G5EF15); assay: inhibitors of POS-1/mex-3 RNA binding, dose response, biochemical, fluorescence polarization (AID 1964);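 also: purified POS-1 fused to maltose binding protein made in E. coli; potency of compounds blocking POS-1 binding to fluorescent RNA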
T2 sequence (G5EF15 whole entry): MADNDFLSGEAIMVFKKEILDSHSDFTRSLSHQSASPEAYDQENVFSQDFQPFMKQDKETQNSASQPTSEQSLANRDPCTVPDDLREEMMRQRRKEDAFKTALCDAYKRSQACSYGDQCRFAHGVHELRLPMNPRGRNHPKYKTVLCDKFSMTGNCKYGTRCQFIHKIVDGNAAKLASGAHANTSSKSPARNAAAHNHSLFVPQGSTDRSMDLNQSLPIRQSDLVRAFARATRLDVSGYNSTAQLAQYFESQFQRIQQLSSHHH

[18] = target: T3, Zinc finger protein mex-5 (Caenorhabditis elegans, UniProt Q9XUB2); assay: MEX-5/TCR-2 RNA interaction inhibitors, dose response, biochemical, C. elegans, fluorescence polarization (AID 1960)
T3 sequence (Q9XUB2 whole entry): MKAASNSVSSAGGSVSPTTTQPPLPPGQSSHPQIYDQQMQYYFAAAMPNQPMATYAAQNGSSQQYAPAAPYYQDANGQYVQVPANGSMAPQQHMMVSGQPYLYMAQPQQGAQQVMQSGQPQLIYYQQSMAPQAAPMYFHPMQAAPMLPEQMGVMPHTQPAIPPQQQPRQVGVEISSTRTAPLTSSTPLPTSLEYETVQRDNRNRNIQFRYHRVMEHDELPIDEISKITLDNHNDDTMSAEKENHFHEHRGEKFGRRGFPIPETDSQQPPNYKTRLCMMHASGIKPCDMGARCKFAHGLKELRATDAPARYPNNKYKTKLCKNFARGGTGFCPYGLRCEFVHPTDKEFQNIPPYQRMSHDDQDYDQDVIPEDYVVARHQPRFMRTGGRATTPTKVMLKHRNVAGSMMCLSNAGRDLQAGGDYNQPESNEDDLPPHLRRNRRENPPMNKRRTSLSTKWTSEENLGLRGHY

Beta-galactosidase = Beta-galactosidase (Escherichia coli, UniProt Q8VNN2); assay: PubChem AID 485352; type: functional
[19] = target: T4, Type-1 angiotensin II receptor (Homo sapiens, UniProt P30556); assay: AT1 receptor antagonists, dose response, selectivity assay for APJ receptor antagonist project, cell-based, uHTS hits (AID 463214); type: functional;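 also: antagonist potency against angiotensin II stimulated AT1 response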
T4 sequence (P30556 whole entry): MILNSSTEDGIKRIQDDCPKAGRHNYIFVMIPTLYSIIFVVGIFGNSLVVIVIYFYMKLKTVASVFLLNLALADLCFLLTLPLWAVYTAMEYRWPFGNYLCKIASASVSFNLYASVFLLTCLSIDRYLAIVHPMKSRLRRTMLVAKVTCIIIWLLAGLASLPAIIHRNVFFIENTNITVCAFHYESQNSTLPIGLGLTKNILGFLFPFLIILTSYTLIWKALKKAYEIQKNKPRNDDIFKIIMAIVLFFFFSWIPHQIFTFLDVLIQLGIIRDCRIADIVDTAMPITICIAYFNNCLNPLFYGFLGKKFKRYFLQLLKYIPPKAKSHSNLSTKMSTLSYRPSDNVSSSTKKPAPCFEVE

HeLa = assay: HeLa cell cytotoxicity, dose response, cytotoxicity control, ATP luminescence, cherry-pick samples (AID 687004); type: functional, cell-based
[20] = target: T5, Acyl-homoserine lactone acylase PvdQ (Pseudomonas aeruginosa (strain LESB58), UniProt Q9I194); assay: P. aeruginosa PvdQ acylase inhibitors, dose response, biochemical, fluorescence, plate reader and imaging, cherry-picks (AID 493231)
T5 sequence (Q9I194 whole entry): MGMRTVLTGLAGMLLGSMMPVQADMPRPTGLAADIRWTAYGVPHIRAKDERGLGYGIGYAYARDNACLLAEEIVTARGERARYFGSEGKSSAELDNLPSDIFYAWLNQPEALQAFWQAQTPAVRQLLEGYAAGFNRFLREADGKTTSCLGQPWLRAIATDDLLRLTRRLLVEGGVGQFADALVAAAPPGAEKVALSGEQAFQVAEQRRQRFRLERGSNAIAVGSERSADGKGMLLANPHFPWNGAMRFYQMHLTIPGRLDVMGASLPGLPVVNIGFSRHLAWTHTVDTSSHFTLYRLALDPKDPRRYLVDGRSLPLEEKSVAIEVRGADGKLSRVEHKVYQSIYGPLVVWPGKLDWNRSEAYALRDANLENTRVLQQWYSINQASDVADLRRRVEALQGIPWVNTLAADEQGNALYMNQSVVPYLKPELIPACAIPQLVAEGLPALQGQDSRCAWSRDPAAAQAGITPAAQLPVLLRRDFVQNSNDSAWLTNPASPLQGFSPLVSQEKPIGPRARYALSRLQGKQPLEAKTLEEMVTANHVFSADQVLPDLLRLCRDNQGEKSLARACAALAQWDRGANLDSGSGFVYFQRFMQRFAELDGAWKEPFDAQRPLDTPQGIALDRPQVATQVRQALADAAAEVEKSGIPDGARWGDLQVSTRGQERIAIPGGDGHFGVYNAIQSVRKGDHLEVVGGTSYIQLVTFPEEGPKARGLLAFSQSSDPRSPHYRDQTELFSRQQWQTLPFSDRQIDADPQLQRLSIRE

[21] = A549 cell cytotoxicity, dose response, cytotoxicity control, plate reader, cherry-pick, antagonist series (AID 743412); type: functional, cell-based
[22] = HepG2 cell cytotoxicity, dose response, cytotoxicity control, plate reader, cherry-pick, antagonist series (AID 743416); type: functional, cell-based
[23] = LGR2 antagonists, dose response, cell-based, HEK293, CRE-luciferase reporter, cherry pick, set 2 (AID 743343); type: functional;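 also: transfected cells were stimulated with diluted bursicon conditioned medium after compound addition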
[24] = MC4R antagonists, dose response, counter-screen for LGR2 antagonist project, cell-based, plate reader, cherry pick (AID 743444); type: functional;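 also: transfected HEK 293 cells stimulated with alpha-MSH peptide; potency of inhibitors of the alpha-MSH evoked signal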
[25] = HEK293 cell cytotoxicity, dose response, cytotoxicity control, plate reader, cherry-picked samples (AID 743446); type: functional, cell-based
cells [26] = type: functional, cell-based
[27] = target: T6, Trace amine-associated receptor 1 (Homo sapiens, UniProt Q96RJ0); assay: Fluorescence-based cell-based high throughput dose response assay to identify agonists of the human trace amine associated receptor 1 (TAAR1).; type: functional
T6 sequence (Q96RJ0 whole entry): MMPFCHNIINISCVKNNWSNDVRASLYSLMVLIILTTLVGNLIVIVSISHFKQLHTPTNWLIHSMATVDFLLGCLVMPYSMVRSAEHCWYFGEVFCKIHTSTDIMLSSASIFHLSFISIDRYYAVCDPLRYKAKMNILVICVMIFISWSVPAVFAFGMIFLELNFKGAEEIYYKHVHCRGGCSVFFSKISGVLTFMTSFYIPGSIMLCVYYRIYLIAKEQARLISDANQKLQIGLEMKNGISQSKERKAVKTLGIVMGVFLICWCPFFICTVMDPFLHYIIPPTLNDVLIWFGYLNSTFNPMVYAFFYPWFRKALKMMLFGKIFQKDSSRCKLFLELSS

[28] = target: T6, Trace amine-associated receptor 1; assay: Counterscreen for agonists of the human trace amine associated receptor 1 (hTAAR1): Fluorescence-based cell-based high throughput dose response assay to identify hTAAR1 agonist that also desensitize TAAR1 receptor response.; type: functional
cells [29] = type: functional, cell-based; remark: listed apart in the source

Sequence of Tyrosyl-DNA phosphodiesterase 2 (O95551 whole entry): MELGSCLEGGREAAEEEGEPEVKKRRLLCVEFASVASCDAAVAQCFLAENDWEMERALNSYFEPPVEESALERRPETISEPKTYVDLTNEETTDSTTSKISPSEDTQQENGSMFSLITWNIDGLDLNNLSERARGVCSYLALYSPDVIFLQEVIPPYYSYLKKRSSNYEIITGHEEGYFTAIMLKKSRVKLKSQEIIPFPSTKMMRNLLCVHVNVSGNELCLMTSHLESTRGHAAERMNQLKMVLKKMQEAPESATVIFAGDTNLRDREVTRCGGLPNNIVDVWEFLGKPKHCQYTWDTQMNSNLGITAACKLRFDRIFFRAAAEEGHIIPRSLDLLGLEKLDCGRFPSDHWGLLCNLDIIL
Sequence of Albumin (P02769 whole entry): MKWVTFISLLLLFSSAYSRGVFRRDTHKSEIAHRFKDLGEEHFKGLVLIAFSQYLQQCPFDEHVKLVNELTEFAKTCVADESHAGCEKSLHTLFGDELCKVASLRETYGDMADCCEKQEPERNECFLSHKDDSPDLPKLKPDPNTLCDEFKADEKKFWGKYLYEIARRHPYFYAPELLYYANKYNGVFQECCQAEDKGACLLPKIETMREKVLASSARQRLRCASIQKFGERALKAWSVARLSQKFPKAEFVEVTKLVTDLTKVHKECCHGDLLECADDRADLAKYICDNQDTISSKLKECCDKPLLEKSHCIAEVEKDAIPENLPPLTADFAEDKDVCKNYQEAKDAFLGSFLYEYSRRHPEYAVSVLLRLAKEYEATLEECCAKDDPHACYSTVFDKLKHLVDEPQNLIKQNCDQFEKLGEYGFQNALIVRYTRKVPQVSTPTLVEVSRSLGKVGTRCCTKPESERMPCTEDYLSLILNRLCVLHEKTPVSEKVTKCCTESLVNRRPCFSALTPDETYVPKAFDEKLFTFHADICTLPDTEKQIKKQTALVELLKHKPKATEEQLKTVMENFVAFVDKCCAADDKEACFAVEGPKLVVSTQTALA
Sequence of Beta-galactosidase (Q8VNN2 whole entry): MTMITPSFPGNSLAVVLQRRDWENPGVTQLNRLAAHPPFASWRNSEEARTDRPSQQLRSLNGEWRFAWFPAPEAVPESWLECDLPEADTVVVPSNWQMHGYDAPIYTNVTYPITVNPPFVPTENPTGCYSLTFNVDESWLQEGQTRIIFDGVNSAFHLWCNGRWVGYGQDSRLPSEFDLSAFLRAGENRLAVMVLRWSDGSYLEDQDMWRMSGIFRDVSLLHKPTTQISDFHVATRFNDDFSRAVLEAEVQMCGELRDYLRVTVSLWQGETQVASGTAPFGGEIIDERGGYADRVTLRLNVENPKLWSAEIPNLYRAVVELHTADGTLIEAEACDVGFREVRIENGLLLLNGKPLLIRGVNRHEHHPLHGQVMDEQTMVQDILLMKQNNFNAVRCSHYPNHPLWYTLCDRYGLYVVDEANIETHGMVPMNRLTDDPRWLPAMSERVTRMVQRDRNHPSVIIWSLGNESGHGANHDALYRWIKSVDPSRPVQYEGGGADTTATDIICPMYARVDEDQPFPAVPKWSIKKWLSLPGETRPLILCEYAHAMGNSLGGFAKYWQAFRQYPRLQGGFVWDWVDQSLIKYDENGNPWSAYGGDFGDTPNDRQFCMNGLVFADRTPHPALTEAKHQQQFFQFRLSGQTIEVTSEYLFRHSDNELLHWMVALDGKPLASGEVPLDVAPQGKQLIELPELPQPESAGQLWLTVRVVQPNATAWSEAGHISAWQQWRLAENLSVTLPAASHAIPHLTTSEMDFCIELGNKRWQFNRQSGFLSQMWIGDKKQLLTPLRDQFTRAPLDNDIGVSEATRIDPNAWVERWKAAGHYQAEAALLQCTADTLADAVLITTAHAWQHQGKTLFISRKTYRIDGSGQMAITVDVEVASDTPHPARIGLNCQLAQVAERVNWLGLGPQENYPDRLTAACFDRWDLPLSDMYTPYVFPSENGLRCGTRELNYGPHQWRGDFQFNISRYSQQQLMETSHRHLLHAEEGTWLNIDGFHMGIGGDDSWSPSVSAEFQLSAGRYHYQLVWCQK

CC(C)=CCOc1ccc(/C=C/C(=O)c2ccc(OCC=C(C)C)cc2OCC(=O)O)cc1 [SOFALCONE]
IC50 [1]: > 10 µM (inactive)
IC50 [2]: 2.92 µM (active)
IC50 [3]: 5.53 µM (inactive)
IC50 [4]: > 6.67 µM (inactive)
IC50 [5]: 7.44 µM (inactive)
IC50 [6]: 1.55 µM (active)
IC50 [7]: > 10 µM (inactive)
IC50 [8]: 5.4 µM (inactive)
IC50 [9]: 5.36 µM (inactive)
IC50 [10]: 3.04 µM (active)

C=CC1=C(C)c2cc3[nH]c(cc4nc(cc5[nH]c(cc1n2)c(C)c5CCC(=O)O)C(CCC(=O)O)=C4C)c(C)c3C=C [PROTOPORPHYRIN DISODIUM]
IC50 [11]: > 40 µM (inactive)
IC50 [12]: 19.6 µM (inactive)

Cc1cc(NC2=CC(=O)C(=O)c3ccccc32)no1
IC50 [13]: 3.52 µM (active)

O=C(Cc1ccccc1)N/N=C/c1cc(Br)cc(Br)c1O
IC50 (Albumin): > 94.1 µM (inactive)

CN(C)c1ccc(/C=C/C#N)cc1
IC50 [14]: > 100 µM (active)

O=P1(O)C=C(c2ccccc2)OC(c2ccccc2)=C1
EC50 [15]: > 67.5 µM (inactive)
EC50 (cells [16]): > 67.5 µM (inactive)

CN(C)c1cccc2c1c(NS(=O)(=O)c1cn(C)cn1)nn2C
EC50 [17]: 89.8 µM (active)
EC50 [18]: 32.5 µM (active)
IC50 [13]: 106 µM (inactive)

COc1ccc(C(=O)NC(=S)Nc2cccc(Cl)c2N2CCOCC2)cc1[N+](=O)[O-]
EC50 (Beta-galactosidase): > 40 µM (inactive)
IC50 [19]: > 40 µM (not active)
AC50 (HeLa): 28.8 µM (active)
AC50 (HeLa; Homo sapiens): > 52 µM (inactive)

COc1ccc(-c2nc3ccccc3s2)cc1
AC50 [20]: > 100 µM (inactive)
AC50 [21]: 42.9 µM (active)
AC50 [22]: > 52 µM (inactive)
AC50 [23]: 2.17 µM (active)
AC50 [24]: 2.75 µM (active)
AC50 [25]: > 52 µM (inactive)

Cc1ccc(C(=O)NC2CCCCCCC2)c(Cl)c1
AC50 [21]: 25.8 µM (active)
AC50 [22]: 25.6 µM (active)
AC50 [23]: 8.04 µM (active)
AC50 [24]: 5.7 µM (active)

O=C(NCCc1cccs1)c1ccc(Cl)cc1
IC50 (cells [26]): > 29.9 µM (inactive)
EC50 [27]: 1.19 µM (active)
IC50 [28]: 3.48 µM (active)
EC50 (cells [29]): > 29.9 µM (inactive)

Nc1nc2c(-c3ccc(Br)cc3)nnn2c2ccccc12
EC50 [15]: > 67.6 µM (inactive)
EC50 (cells [16]): > 67.6 µM (inactive)

OCCNc1nc(Nc2ccccc2)nc2ccccc12
IC50 (cells [26]): > 29.9 µM (inactive)
EC50 [27]: 0.0634 µM (active)
IC50 [28]: 0.2 µM (active)
EC50 (cells [29]): > 29.9 µM (inactive)

Cn1nnc(NC(=O)c2cccc(F)c2)n1
IC50 [14]: > 100 µM (active)

O=C(NNC(=O)c1ccc2ccccc2c1O)NC1CCCCC1
IC50 (Albumin): > 94.1 µM (inactive)
